Experimental data published in US20250296959A1, “B7-H3 TARGETING PEPTIDES AND CONSTRUCTS THEREOF” (Mariana Oncology Inc., priority 2024, published 2025).
pKd: −log10 of the molar value. Starred links: 1 amine or outer side, 2 acyl side, 3 side chain; linkers in the order of their positions; H or OH if unused. Positions of bridges follow the written chain, without caps; N, C: chain ends. Non-standard residues stand in square brackets, D forms with d. Residues, ends and D or L forms follow the SMILES beside them. *: point of attachment. X6 = CSCC[C@H](NC(=O)c1ccc(CNC(=O)CN2CCN(CC(=O)O)CCN(CC(=O)O)CCN(CC(=O)O)CC2)cc1)C(=O)N[C@H](C(=O)N[C@@H](CCCCN*)C(=O)O)C(C)C; Ala(piperidin-4-yl) = O=C([C@H](CC1CCN([*:3])CC1)N[*:1])[*:2]; DOTA = O=C(O)CN1CCN(CC(=O)O)CCN(CC(=O)*)CCN(CC(=O)O)CC1; Phe(4-COOH) = N[C@@H](Cc1ccc(C(=O)O)cc1)C(=O)O; Trp(5-F) = N[C@@H](Cc1c[nH]c2ccc(F)cc12)C(=O)O; X1 = C[C@@H](c1ccccc1)[C@H](N[*:1])C(=O)[*:2]; Phe(3R-Me) = C[C@H](c1ccccc1)[C@H](N)C(=O)O; PEG8 = NCCOCCOCCOCCOCCOCCOCCOCCOCCC(=O)O; Phe(3-Cl) = N[C@@H](Cc1cccc(Cl)c1)C(=O)O; 1Nal = N[C@@H](Cc1cccc2ccccc12)C(=O)O; Ala(4-THP) = N[C@@H](CC1CCOCC1)C(=O)O; Phe(2-Me) = Cc1ccccc1C[C@H](N)C(=O)O; Val(3-OH) = CC(C)(O)[C@H](N)C(=O)O; 4Pal = N[C@@H](Cc1ccncc1)C(=O)O; Abu(4-CN) = N#CCC[C@H](N)C(=O)O; Chg = N[C@H](C(=O)O)C1CCCCC1; Suc = O=C(CCC(=O)[*:2])[*:1]; Tle = CC(C)(C)[C@H](N)C(=O)O; hLeu = CC(C)CC[C@H](N)C(=O)O; NMeS = CN[C@@H](CO)C(=O)O; Nle = CCCC[C@H](N)C(=O)O

target: T1, human 4lg B7-H3 (Homo sapiens, UniProt Q5ZPR3); experiment: Affinity determination by surface plasmon resonance (SPR) to 4Ig B7-H3; details: SPR KD—25° C., 4Ig B7-H3; 25° C. flow cell temperature
T1 sequence (Q5ZPR3 29-534): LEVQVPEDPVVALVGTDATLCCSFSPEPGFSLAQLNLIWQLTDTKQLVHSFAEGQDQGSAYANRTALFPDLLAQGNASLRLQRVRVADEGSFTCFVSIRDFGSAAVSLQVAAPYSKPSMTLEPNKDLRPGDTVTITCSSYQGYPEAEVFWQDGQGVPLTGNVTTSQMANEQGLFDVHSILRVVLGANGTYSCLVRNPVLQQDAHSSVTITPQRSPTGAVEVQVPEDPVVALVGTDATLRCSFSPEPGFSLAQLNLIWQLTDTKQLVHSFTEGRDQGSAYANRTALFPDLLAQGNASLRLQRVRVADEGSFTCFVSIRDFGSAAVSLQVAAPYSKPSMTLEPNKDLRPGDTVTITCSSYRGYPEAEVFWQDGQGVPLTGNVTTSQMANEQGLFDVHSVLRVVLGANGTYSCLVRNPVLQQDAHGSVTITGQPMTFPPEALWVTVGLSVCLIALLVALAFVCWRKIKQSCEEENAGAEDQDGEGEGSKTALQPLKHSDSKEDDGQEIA

pKd	Compound
8.00 to 9.00	CC(=O)N[C@@H](CCC(C)C)C(=O)N[C@@H](Cc1ccc(O)cc1)C(=O)N[C@H]1CSSC[C@@H](C(=O)N[C@@H](Cc2cccc3ccccc23)C(=O)N[C@@H](Cc2ccccc2)C(=O)N[C@H](C(=O)N[C@H](CCCCNC(=O)CN2CCN(CC(=O)O)CCN(CC(=O)O)CCN(CC(=O)O)CC2)C(N)=O)[C@@H](C)O)NC(=O)[C@H](Cc2ccc(O)cc2)NC(=O)[C@H](C2CCCCC2)NC(=O)[C@H](CC(=O)O)NC(=O)[C@H](Cc2ccc(O)cc2)NC(=O)[C@H](CCCCN)NC(=O)CNC(=O)[C@H](C(C)(C)C)NC1=O [compound 180, Ac-hLeu-Y-C-Tbg-G-K-Y-D-Chg-Y-C-1Nal-F-Thr-dLys(DOTA)-CONH2] (Ac-[hLeu]YC[Tle]GKYD[Chg]YC[1Nal]FT[dK](DOTA)-NH2; disulfide 3-11)
7.00 to 8.00	CCCC[C@@H]1NC(=O)[C@H](C(C)C)NC(=O)[C@H](CC(=O)O)NC(=O)[C@H](Cc2ccc(C(=O)O)cc2)NC(=O)[C@H](CCCCN)NC(=O)CNC(=O)[C@H](C(C)C)NC(=O)[C@@H](NC(=O)[C@H](Cc2ccc(O)cc2)NC(=O)[C@H](CCC(C)C)NC(=O)CCOCCOCCOCCOCCOCCOCCOCCOCCNC(=O)CN2CCN(CC(=O)O)CCN(CC(=O)O)CCN(CC(=O)O)CC2)CSSC[C@@H](C(=O)N[C@@H](Cc2c[nH]c3ccc(F)cc23)C(=O)N[C@@H](Cc2ccccc2)C(=O)N2CCC[C@H]2C(N)=O)NC1=O [compound 293, DOTA-PEG8-hLeu-Y-C-V-G-K-4COOHPhe-D-V-Nle-C-5FW-F-Pro-CONH2] ({DOTA-PEG8}-[hLeu]YCVGK[Phe(4-COOH)]DV[Nle]C[Trp(5-F)]FP-NH2; disulfide 3-11)
6.52 to 7.00	CC(=O)N[C@@H](CCC(C)C)C(=O)N[C@@H](Cc1ccc(O)cc1)C(=O)N[C@H]1CSSC[C@@H](C(=O)N[C@@H](Cc2cccc3ccccc23)C(=O)N[C@@H](Cc2ccccc2)C(=O)N(C)[C@@H](CO)C(=O)N[C@H](CCCCNC(=O)CN2CCN(CC(=O)O)CCN(CC(=O)O)CCN(CC(=O)O)CC2)C(N)=O)NC(=O)[C@H](CCC#N)NC(=O)[C@H](C(C)C)NC(=O)[C@H](CC(=O)O)NC(=O)[C@H](Cc2ccncc2)NC(=O)[C@H](CCCCN)NC(=O)CNC(=O)[C@H](C(C)(C)C)NC1=O [compound 221, Ac-hLeu-Y-C-Tbg-G-K-4PyA-D-V-CyanoButric-C-1Nal-F-NMeSer-dLys(DOTA)-CONH2] (Ac-[hLeu]YC[Tle]GK[4Pal]DV[Abu(4-CN)]C[1Nal]F[NMeS][dK](DOTA)-NH2; disulfide 3-11)

same assay, conditions: SPR KD—37° C., 4Ig B7-H3; 37° C. flow cell temperature

Compound	pKd
CSCC[C@H](NC(=O)c1ccc(CNC(=O)CN2CCN(CC(=O)O)CCN(CC(=O)O)CCN(CC(=O)O)CC2)cc1)C(=O)N[C@H](C(=O)N[C@@H](CCCCNC(=O)[C@@H](NC(=O)[C@@H](NC(=O)[C@H](Cc1c[nH]c2ccc(F)cc12)NC(=O)[C@@H]1CSSC[C@H](NC(=O)[C@H](Cc2ccc(O)cc2)NC(=O)[C@H](CCC(C)C)NC(C)=O)C(=O)N[C@@H](C(C)(C)C)C(=O)NCC(=O)N[C@@H](CC2CCNCC2)C(=O)N[C@@H](CC2CCOCC2)C(=O)N[C@@H](CC(=O)O)C(=O)N[C@@H](C(C)C)C(=O)N[C@@H](Cc2ccc(O)cc2)C(=O)N1)[C@@H](C)c1ccccc1)C(C)(C)O)C(=O)O)C(C)C [Cpd #517, Ac-hLeu-Y-C-Tbg-G-PipAla-ThpA-D-V-Y-C-5FW-[(2S, 3S)beta-Me-Phe]-hydroxyVal-&Lys(Val-Met-AmBz-DOTA)-COOH] (Ac-[hLeu]YC[Tle]G[Ala(piperidin-4-yl)][Ala(4-THP)]DVYC[Trp(5-F)][X1][Val(3-OH)]-X6; disulfide 3-11)	> 9.00
CCCC[C@H](NC(C)=O)C(=O)N[C@@H](Cc1ccc(O)cc1)C(=O)N[C@H]1CSSC[C@@H](C(=O)N[C@@H](Cc2c[nH]c3ccccc23)C(=O)N[C@@H](Cc2ccccc2)C(N)=O)NC(=O)[C@H](Cc2ccc(O)cc2)NC(=O)[C@H](C(C)C)NC(=O)[C@H](CC(=O)O)NC(=O)[C@H](Cc2ccc(O)cc2)NC(=O)[C@H](CCCCN)NC(=O)CNC(=O)[C@H](C(C)C)NC1=O [Cpd #7, Ac-Nle-Y-C-V-G-K-Y-D-V-Y-C-W-F-CONH2] (Ac-[Nle]YCVGKYDVYCWF-NH2; disulfide 3-11)	7.00 to 8.00
CCCC[C@H](NC(=O)[C@H](Cc1c[nH]c2ccc(F)cc12)NC(=O)[C@@H]1CSSC[C@H](NC(=O)[C@H](Cc2ccc(O)cc2)NC(=O)[C@H](CCC(C)C)NC(C)=O)C(=O)N[C@@H](C(C)(C)C)C(=O)NCC(=O)N[C@@H](CCCCN)C(=O)N[C@@H](CC2CCOCC2)C(=O)N[C@@H](CC(=O)O)C(=O)N[C@@H](C(C)C)C(=O)N[C@@H](Cc2ccc(O)cc2)C(=O)N1)C(=O)N[C@H](C(=O)N[C@H](CCCCNC(=O)CN1CCN(CC(=O)O)CCN(CC(=O)O)CCN(CC(=O)O)CC1)C(=O)O)C(C)(C)O [compound 327, Ac-hLeu-Y-C-Tbg-G-K-ThpA-D-V-Y-C-5FW-Nle-hydroxyVal-dLys(DOTA)-COOH] (Ac-[hLeu]YC[Tle]GK[Ala(4-THP)]DVYC[Trp(5-F)][Nle][Val(3-OH)][dK](DOTA)-OH; disulfide 3-11)	7.00 to 8.00

Next, values leading:

pKd	Compound
8.00 to 9.00	CC(C)CC[C@H](NC(=O)CCC(=O)O)C(=O)N[C@@H](Cc1ccc(O)cc1)C(=O)N[C@H]1CSSC[C@@H](C(=O)N[C@@H](Cc2c[nH]c3ccc(F)cc23)C(=O)N[C@@H](Cc2ccccc2)C(=O)N[C@H](C(=O)N[C@H](CCCCNC(=O)CN2CCN(CC(=O)O)CCN(CC(=O)O)CCN(CC(=O)O)CC2)C(=O)O)C(C)(C)O)NC(=O)[C@H](Cc2ccc(O)cc2)NC(=O)[C@H](C(C)C)NC(=O)[C@H](CC(=O)O)NC(=O)[C@H](CC2CCOCC2)NC(=O)[C@H](CC2CCNCC2)NC(=O)CNC(=O)[C@H](C(C)(C)C)NC1=O [compound 451, C4diacid-hLeu-Y-C-Tbg-G-PipAla-ThpA-D-V-Y-C-5FW-F-hydroxyVal-dLys(DOTA)-COOH] (Suc-[hLeu]YC[Tle]G[Ala(piperidin-4-yl)][Ala(4-THP)]DVYC[Trp(5-F)]F[Val(3-OH)][dK](DOTA)-OH; disulfide 3-11)
> 9.00	CC(=O)N[C@@H](CCC(C)C)C(=O)N[C@@H](Cc1ccc(O)cc1)C(=O)N[C@H]1CSSC[C@@H](C(=O)N[C@@H](Cc2c[nH]c3ccc(F)cc23)C(=O)N[C@@H](Cc2cccc(Cl)c2)C(=O)N[C@H](C(=O)N[C@H](CCCCNC(=O)CN2CCN(CC(=O)O)CCN(CC(=O)O)CCN(CC(=O)O)CC2)C(=O)O)C(C)(C)O)NC(=O)[C@H](Cc2ccc(O)cc2)NC(=O)[C@H](C(C)C)NC(=O)[C@H](CC(=O)O)NC(=O)[C@H](CC2CCOCC2)NC(=O)[C@H](CC2CCNCC2)NC(=O)CNC(=O)[C@H](C(C)(C)C)NC1=O [compound 430, Ac-hLeu-Y-C-Tbg-G-PipAla-ThpA-D-V-Y-C-5FW-3CIPhe-hydroxyVal-dLys(DOTA)-COOH] (Ac-[hLeu]YC[Tle]G[Ala(piperidin-4-yl)][Ala(4-THP)]DVYC[Trp(5-F)][Phe(3-Cl)][Val(3-OH)][dK](DOTA)-OH; disulfide 3-11)
> 9.00	CC(=O)N[C@@H](CCC(C)C)C(=O)N[C@@H](Cc1ccc(O)cc1)C(=O)N[C@H]1CSSC[C@@H](C(=O)N[C@@H](Cc2c[nH]c3ccc(F)cc23)C(=O)N[C@H](C(=O)N[C@H](C(=O)N[C@H](CCCCNC(=O)CN2CCN(CC(=O)O)CCN(CC(=O)O)CCN(CC(=O)O)CC2)C(=O)O)C(C)(C)O)[C@H](C)c2ccccc2)NC(=O)[C@H](Cc2ccc(O)cc2)NC(=O)[C@H](C(C)C)NC(=O)[C@H](CC(=O)O)NC(=O)[C@H](CC2CCOCC2)NC(=O)[C@H](CC2CCNCC2)NC(=O)CNC(=O)[C@H](C(C)(C)C)NC1=O [compound 434, Ac-hLeu-Y-C-Tbg-G-PipAla-ThpA-D-V-Y-C-5FW-[(2S, 3R)beta-Me-Phe]-hydroxyVal-dLys(DOTA)-COOH] (Ac-[hLeu]YC[Tle]G[Ala(piperidin-4-yl)][Ala(4-THP)]DVYC[Trp(5-F)][Phe(3R-Me)][Val(3-OH)][dK](DOTA)-OH; disulfide 3-11)
> 9.00	CC(=O)N[C@@H](CCC(C)C)C(=O)N[C@@H](Cc1ccc(O)cc1)C(=O)N[C@H]1CSSC[C@@H](C(=O)N[C@@H](Cc2c[nH]c3ccc(F)cc23)C(=O)N[C@@H](Cc2ccccc2C)C(=O)N[C@H](C(=O)N[C@H](CCCCNC(=O)CN2CCN(CC(=O)O)CCN(CC(=O)O)CCN(CC(=O)O)CC2)C(=O)O)C(C)(C)O)NC(=O)[C@H](Cc2ccc(O)cc2)NC(=O)[C@H](C(C)C)NC(=O)[C@H](CC(=O)O)NC(=O)[C@H](CC2CCOCC2)NC(=O)[C@H](CC2CCNCC2)NC(=O)CNC(=O)[C@H](C(C)(C)C)NC1=O [compound 456, Ac-hLeu-Y-C-Tbg-G-PipAla-ThpA-D-V-Y-C-5FW-2MePhe-hydroxyVal-dLys(DOTA)-COOH] (Ac-[hLeu]YC[Tle]G[Ala(piperidin-4-yl)][Ala(4-THP)]DVYC[Trp(5-F)][Phe(2-Me)][Val(3-OH)][dK](DOTA)-OH; disulfide 3-11)
8.00 to 9.00	CC(=O)N[C@@H](CCC(C)C)C(=O)N[C@@H](Cc1ccc(O)cc1)C(=O)N[C@H]1CSSC[C@@H](C(=O)N[C@@H](Cc2c[nH]c3ccc(F)cc23)C(=O)N[C@@H](Cc2ccccc2)C(=O)N[C@H](C(=O)N[C@H](CCCCN)C(N)=O)C(C)(C)O)NC(=O)[C@H](Cc2ccc(O)cc2)NC(=O)[C@H](C(C)C)NC(=O)[C@H](CC(=O)O)NC(=O)[C@H](CC2CCOCC2)NC(=O)[C@H](CCCCNC(=O)CN2CCN(CC(=O)O)CCN(CC(=O)O)CCN(CC(=O)O)CC2)NC(=O)CNC(=O)[C@H](C(C)(C)C)NC1=O [compound 337, Ac-hLeu-Y-C-Tbg-G-Lys(DOTA)-ThpA-D-V-Y-C-5FW-F-hydroxyVal-dLys-CONH2] (Ac-[hLeu]YC[Tle]GK(DOTA)[Ala(4-THP)]DVYC[Trp(5-F)]F[Val(3-OH)][dK]-NH2; disulfide 3-11)
